Source: PubChem BioAssay AID588620 (NMMLSC, 2011)
Where “and” joins values, the source holds several entries; their conditions need not be identical. Identical values can stand only once. Calls of active or inactive are those of the source.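 The calls were made as follows: active = fitted half-maximal concentration below 30 µM for cell fluorescence in pump-free yeast, so likely self-fluorescent; inactive = the rest.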

assay: concentration-dependent intrinsic compound fluorescence, S. cerevisiae AD/pABC3, flow cytometry, Cherry Pick1 hits, artefact control for antifungal efflux pump inhibitor project, dose response (AID 588620);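 also: red emission of unstained cells excited at 488 nm measured in PE-Texas Red channel; cell median fluorescence as percent of DMSO wells so 100% equals vehicle baseline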; settings: S. cerevisiae AD/pABC3 compound autofluorescence, flow cytometry; at 33.1 µM (top of the series)

For `OCCN1CCN(CC/C=C2/c3ccccc3Sc3ccc(C(F)(F)F)cc32)CC1`, which fluorescence response, % of control is on record?
The fluorescence response, % of control was 332% (inactive).

For `CC(C)c1ccc(C(=O)NC(=S)Nc2ccc3[nH]c(=O)[nH]c3c2)cc1`, which fluorescence response, % of control is on record?
Its fluorescence response, % of control is 158% (inactive).

Which fluorescence response, % of control does the source give for `CCO[C@@H]1OC(C(=O)Nc2ccccc2)=C[C@H](c2ccc(Br)cc2)[C@H]1CCCO` here?
The fluorescence response, % of control was 102% (inactive).

For `COc1ccc(NC(=O)Nc2cccc3c2O[C@H](CN(C)C(=O)Nc2ccc(OC)cc2)[C@@H](C)CN([C@H](C)CO)C3=O)cc1`, which fluorescence response, % of control is on record?
Its fluorescence response, % of control is 86% (inactive).

With `COc1cccc(CN(CC(=O)NCC2CCCO2)C(=O)CCC(=O)Nc2cc(C)on2)c1` (stereo unspecified) as the compound, how does the fluorescence response, % of control read?
Its fluorescence response, % of control is 103% (inactive).

Which fluorescence response, % of control does the source give for `CCOc1ccc(OCC)c(NS(=O)(=O)c2ccc3c(c2)CCN3C(=O)C2CCC2)c1` here?
Its fluorescence response, % of control is 80.8% (inactive).

For `CCc1ccc(N=C2NC(=O)/C(=C/c3cc(OC)c(O)c(OC)c3)S2)cc1`, which fluorescence response, % of control is on record?
The fluorescence response, % of control was 419% (inactive).

For `O=C(Cc1cccs1)N1CCN=C1SCc1ccccc1Cl`, which fluorescence response, % of control is on record?
Its fluorescence response, % of control is 121% (inactive).

For `COc1ccc(-n2ncc3c2CC(C)(C)CC3NC(=O)c2cnc(C)cn2)cc1` (stereo unspecified), which fluorescence response, % of control is on record?
The fluorescence response, % of control was 99.3% (inactive).

With `O=c1[nH]c(C2CCN(S(=O)(=O)c3ccc4c(c3)OCCO4)CC2)nc2c1nnn2Cc1ccccc1F` as the compound, how does the fluorescence response, % of control read?
Its fluorescence response, % of control is 82.5% (inactive).

For `CCCOc1ccc(-c2nc(N3CCN(C)CC3)c3ccccc3n2)cc1`, which fluorescence response, % of control is on record?
Its fluorescence response, % of control is 95.7% (inactive).

For `COc1ccc(/C=C/C(=O)Nc2cccc(S(=O)(=O)N3CCCC3)c2)cc1OC`, which fluorescence response, % of control is on record?
The fluorescence response, % of control was 103% (inactive).

With `CCOc1ccccc1-c1nc(C(N)=O)c2[nH]c(=O)n(-c3cccc(C)c3)c2n1` as the compound, how does the fluorescence response, % of control read?
The fluorescence response, % of control was 80.3% (inactive).

Which fluorescence response, % of control does the source give for `Cc1c2ccncc2c(C)c2c1[nH]c1ccccc12` here?
The fluorescence response, % of control was 132% (inactive) and 1000% (inactive).

With `CSCCC(NC(=O)c1ccccc1Cl)C(=O)N1CCN(C(c2ccccc2)c2ccccc2)CC1` (stereo unspecified) as the compound, how does the fluorescence response, % of control read?
The fluorescence response, % of control was 80.9% (inactive).

For `Cc1cccc(NC(=O)c2nc[nH]c2C(=O)N[C@H](C)c2ccccc2)c1`, which fluorescence response, % of control is on record?
Its fluorescence response, % of control is 92.4% (inactive).

Which fluorescence response, % of control does the source give for `Cc1ccc(Cn2nnc3c(=O)[nH]c(C4CCN(S(=O)(=O)c5ccccc5F)CC4)nc32)cc1` here?
The fluorescence response, % of control was 90.8% (inactive).

Which fluorescence response, % of control does the source give for `COc1ccc(C(=O)NC2CCCc3c2cnn3-c2ccccc2F)o1` (stereo unspecified) here?
Its fluorescence response, % of control is 86.3% (inactive).

For `Cc1c(NC(=O)c2ncn[nH]2)cccc1-c1nc2ccccc2s1`, which fluorescence response, % of control is on record?
Its fluorescence response, % of control is 109% (inactive).

With `O=C(c1ccc2c(c1)OCO2)N1CCC2(CC1)Oc1ccc(F)cc1C(=O)C21CC(c2ccc(Cl)cc2)=NO1` (stereo unspecified) as the compound, how does the fluorescence response, % of control read?
The fluorescence response, % of control was 165% (inactive).

With `Cc1cnc(C(=O)NC2CC(C)(C)Cc3c2cnn3-c2ccccc2)cn1` (stereo unspecified) as the compound, how does the fluorescence response, % of control read?
The fluorescence response, % of control was 98.5% (inactive).

Which fluorescence response, % of control does the source give for `CCC(=O)NC(c1ccco1)c1cc(Cl)c2cccnc2c1O` (stereo unspecified) here?
The fluorescence response, % of control was 99.8% (inactive).

Which fluorescence response, % of control does the source give for `O=C(c1ccc2c(c1)OCO2)N1CCC2(CC1)Oc1ccc(Cl)cc1C(=O)C21CC(c2ccccc2)=NO1` (stereo unspecified) here?
Its fluorescence response, % of control is 90.9% (inactive).

For `COc1ccc2[nH]c3c(C)c4cc[n+](C)cc4c(C)c3c2c1`, which fluorescence response, % of control is on record?
Its fluorescence response, % of control is 153% (inactive).

Which fluorescence response, % of control does the source give for `Cc1ccc(C(=O)N2CCC3(CC2)Oc2ccc(Cl)cc2C(=O)C32CC(c3ccccc3)=NO2)s1` (stereo unspecified) here?
The fluorescence response, % of control was 105% (inactive).

With `O=C(NC1CCCc2c1cnn2-c1ccccc1F)c1ccccn1` (stereo unspecified) as the compound, how does the fluorescence response, % of control read?
The fluorescence response, % of control was 81.2% (inactive).

Which fluorescence response, % of control does the source give for `COc1ccc2nc(NC(=O)c3ccoc3C)sc2c1` here?
Its fluorescence response, % of control is 117% (inactive).

With `CCOC(=O)c1cnc(SC)nc1Oc1cccc(NC(=O)c2ccc(Cl)cc2)c1` as the compound, how does the fluorescence response, % of control read?
Its fluorescence response, % of control is 90.9% (inactive).

Which fluorescence response, % of control does the source give for `Nc1ncc2c(n1)-c1cc(Cl)ccc1SC2` here?
Its fluorescence response, % of control is 102% (inactive).

For `COc1ccc2c(c1)OC[C@H]1[C@H]2N2C(=O)c3ccc(C)cc3NC(=O)[C@@]2(C)[C@H]1c1ccccc1`, which fluorescence response, % of control is on record?
The fluorescence response, % of control was 106% (inactive).

With `O=C(NNc1cc(N2CCCC2)nc(N2CCCC2)n1)c1ccc([N+](=O)[O-])cc1` as the compound, how does the fluorescence response, % of control read?
The fluorescence response, % of control was 95.7% (inactive).

With `COc1cc(OC)cc(-c2sc3ccc(OC)cc3c2-c2ccc(OCCN3CCOCC3)cc2)c1` as the compound, how does the fluorescence response, % of control read?
The fluorescence response, % of control was 111% (inactive).

Which fluorescence response, % of control does the source give for `CN(C(=O)c1ccc(NC(=O)c2ccco2)cc1)c1ccccc1` here?
Its fluorescence response, % of control is 105% (inactive).

Which fluorescence response, % of control does the source give for `O=C(c1ccoc1)N1CCC2(CC1)Oc1ccc(F)cc1C(=O)C21CC(c2ccccc2)=NO1` (stereo unspecified) here?
The fluorescence response, % of control was 85.1% (inactive).

With `COCCn1c(=S)[nH]c2sc3c(c2c1=O)CCCC3` as the compound, how does the fluorescence response, % of control read?
The fluorescence response, % of control was 91.7% (inactive).

Which fluorescence response, % of control does the source give for `CCn1ncc(Br)c1C(=O)Nc1cc(C)cc(C)c1` here?
The fluorescence response, % of control was 129% (inactive).

With `COc1ccc(-c2ccc3c(c2)S(=O)(=O)c2cccc(C(=O)NC4CCCCC4)c2C3=O)cc1OC` as the compound, how does the fluorescence response, % of control read?
The fluorescence response, % of control was 106% (inactive).

Which fluorescence response, % of control does the source give for `COc1ccc2cc(CN(CC3CCCO3)S(=O)(=O)c3ccc(C(C)=O)cc3)c(=O)[nH]c2c1` (stereo unspecified) here?
Its fluorescence response, % of control is 78.2% (inactive).

With `CC(C)C(=O)N1CCC2(CC1)Oc1ccc(F)cc1C(=O)C21CC(c2ccc(Cl)cc2)=NO1` (stereo unspecified) as the compound, how does the fluorescence response, % of control read?
Its fluorescence response, % of control is 105% (inactive).

Which fluorescence response, % of control does the source give for `c1ccc2c(c1)Cc1cc(CN3CCOCC3)ccc1-2` here?
The fluorescence response, % of control was 109% (inactive).

Which fluorescence response, % of control does the source give for `CCOc1ccccc1-c1nc(C(N)=O)c2[nH]c(=O)n(-c3ccccc3)c2n1` here?
The fluorescence response, % of control was 90.8% (inactive).
